pEC50: −log10 of the molar value.
Key:
[1] = system: isolated perfused rat hearts; experiment: Ex vivo isolated perfused rat heart assay (Langendorff apparatus), load independent inotropic and lusitropic effects; parameters: species or system Sprague Dawley rat; conditions: ex vivo isolated perfused rat heart, percent change over vehicle; for Isolated Heart Assay dP/dtmax (%): contractility; for Isolated Heart Assay dP/dtmin (%): relaxation
From the text: Evidence for Load Independent Inotropic Effects with APJ Agonists Using Ex Vivo Assay (Isolated Perfused Rat Hearts)
Naive Sprague Dawley® SD rats (Harlan laboratories (Livermore, Calif. USA)) were anaesthetized and hearts were excised followed by cannulation in the Langendorff apparatus (Harvard apparatus, Holliston, Mass. USA) via aorta. The heart was perfused retrograde with modified oxygenated Krebs-Henseleit buffer (Skrzypiec-Spring M et al., (2007) J. Pharmacol Toxicol Methods 55: 113-126). The pressure of the solution causes the aortic valve to shut and the perfusate is then forced into the ostium and the coronary vessels. This allows the heart to beat for several h. A balloon was inserted into the left ventricle (LV) to measure dP/dtmax (derivative of left ventricular pressure) as an index of cardiac contractility. The APJ agonist was perfused constantly in a dose dependent manner into the heart to examine cardiac contractility.
Example 49.0 was infused at different concentrations and load independent contractility was measured by index of LV dP/dtmax and the results are expressed as a percent change over vehicle. […] Example 49.0 was infused at different concentrations and load independent lusitropic effect (relaxation) was measured by index of LV dP/dtmin where results are expressed as percent change over vehicle. […] Example 60.0 was infused at different concentrations and load independent contractility was measured by index of LV dP/dtmax and the results are expressed as a percent change over vehicle. […] Example 60.0 was infused at different concentrations and load independent lusitropic effect (relaxation) was measured by index of LV dP/dtmin where results are expressed as percent change over vehicle.

human APJ receptor = human APJ receptor (Homo sapiens (Human), UniProt P35414); experiment: [35S]GTPγS binding assay on membranes from CHO cells stably expressing human APJ receptor; type: biochemical; conditions: read-out: Activity hAPJ SPA EC50 IP
Outline: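 Membranes from CHO cells stably expressing human APJ incubated with ligand, 0.2 nM [35S]GTPγS and WGA SPA beads in HEPES pH 7.5 with 5 mM MgCl2, 200 mM NaCl, 3 μM GDP, 90 min at RT. Nonspecific binding defined with 100 μM GTPγS; EC50 by non-linear regression.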

Chain of human APJ receptor (P35414 whole entry): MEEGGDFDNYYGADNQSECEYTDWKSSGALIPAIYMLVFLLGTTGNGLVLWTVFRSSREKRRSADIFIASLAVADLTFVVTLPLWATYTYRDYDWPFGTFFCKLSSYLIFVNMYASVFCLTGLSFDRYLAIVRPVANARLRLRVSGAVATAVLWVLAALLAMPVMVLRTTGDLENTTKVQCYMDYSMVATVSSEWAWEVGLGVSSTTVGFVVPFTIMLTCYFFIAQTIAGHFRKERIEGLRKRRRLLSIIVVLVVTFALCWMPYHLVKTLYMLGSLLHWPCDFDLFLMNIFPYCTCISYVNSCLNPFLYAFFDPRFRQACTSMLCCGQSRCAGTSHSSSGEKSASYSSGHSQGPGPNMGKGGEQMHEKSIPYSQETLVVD

Structure (SMILES): COc1cccc(OC)c1-n1c(NS(=O)(=O)[C@@H](C)[C@H](OC)c2ncc(Cl)cn2)nnc1[C@H]1CCCO1 (single isomer, unassigned) [Example 51.0, (1R,2S)-1-(5-chloropyrimidin-2-yl)-N-(4-(2,6-dimethoxyphenyl)-5-((R)-tetrahydrofuran-2-yl)-4H-1,2,4-triazol-3-yl)-1-methoxypropane-2-sulfonamide or (1R,2S)-1-(5-chloropyrimidin-2-yl)-N-(4-(2,6-dimethoxyphenyl)-5-((S)-tetrahydrofuran-2-yl)-4H-1,2,4-triazol-3-yl)-1-methoxypropane-2-sulfonamide]
- Isolated Heart Assay dP/dtmax (%) [1]: No effect
- Isolated Heart Assay dP/dtmin (%) [1]: No effect
- pEC50 (human APJ receptor): 9.23

Structure (SMILES): COc1cccc(OC)c1-n1c(NS(=O)(=O)[C@@H](C)[C@H](C)c2ncc(Cl)cn2)nnc1[C@H]1CCCO1 (single isomer, unassigned) [Example 53.0, (2S,3R)-3-(5-chloro-2-pyrimidinyl)-N-(4-(2,6-dimethoxyphenyl)-5-((2S)-tetrahydro-2-furanyl)-4H-1,2,4-triazol-3-yl)-2-butanesulfonamide or (2S,3R)-3-(5-chloro-2-pyrimidinyl)-N-(4-(2,6-dimethoxyphenyl)-5-((2R)-tetrahydro-2-furanyl)-4H-1,2,4-triazol-3-yl)-2-butanesulfonamide]
- Isolated Heart Assay dP/dtmax (%) [1]: 14.0%
- Isolated Heart Assay dP/dtmin (%) [1]: 12.4%
- pEC50 (human APJ receptor): 7.89

Structure (SMILES): COc1cccc(OC)c1-n1c(NS(=O)(=O)[C@@H](C)[C@H](OC)c2ncc(Cl)cn2)nnc1[C@H]1CCOC1 (single isomer, unassigned) [Example 56.0, (1R,2S)-1-(5-chloropyrimidin-2-yl)-N-(4-(2,6-dimethoxyphenyl)-5-((R)-tetrahydrofuran-3-yl)-4H-1,2,4-triazol-3-yl)-1-methoxypropane-2-sulfonamide or (1R,2S)-1-(5-chloropyrimidin-2-yl)-N-(4-(2,6-dimethoxyphenyl)-5-((S)-tetrahydrofuran-3-yl)-4H-1,2,4-triazol-3-yl)-1-methoxypropane-2-sulfonamide]
- Isolated Heart Assay dP/dtmax (%) [1]: 6.8%
- Isolated Heart Assay dP/dtmin (%) [1]: 7.1%
- pEC50 (human APJ receptor): 7.72

Structure (SMILES): COc1cccc(OC)c1-n1c(NS(=O)(=O)[C@@H](C)[C@H](OC)c2ncc(Cl)cn2)nnc1[C@H]1CCOC1 (single isomer, unassigned) [Example 57.0, (1R,2S)-1-(5-chloropyrimidin-2-yl)-N-(4-(2,6-dimethoxyphenyl)-5-((R)-tetrahydrofuran-3-yl)-4H-1,2,4-triazol-3-yl)-1-methoxypropane-2-sulfonamide or (1R,2S)-1-(5-chloropyrimidin-2-yl)-N-(4-(2,6-dimethoxyphenyl)-5-((S)-tetrahydrofuran-3-yl)-4H-1,2,4-triazol-3-yl)-1-methoxypropane-2-sulfonamide]
- Isolated Heart Assay dP/dtmax (%) [1]: No effect
- Isolated Heart Assay dP/dtmin (%) [1]: No effect
- pEC50 (human APJ receptor): 7.68

Structure (SMILES): COc1cccc(OC)c1-n1c(NS(=O)(=O)[C@@H](C)[C@H](C)c2ncc(Cl)cn2)nnc1[C@H]1CCOC1 (single isomer, unassigned) [Example 61.0, (2S,3R)-3-(5-chloropyrimidin-2-yl)-N-(4-(2,6-dimethoxyphenyl)-5-((R)-tetrahydrofuran-3-yl)-4H-1,2,4-triazol-3-yl)butane-2-sulfonamide or (2S,3R)-3-(5-chloropyrimidin-2-yl)-N-(4-(2,6-dimethoxyphenyl)-5-((S)-tetrahydrofuran-3-yl)-4H-1,2,4-triazol-3-yl)butane-2-sulfonamide]
- Isolated Heart Assay dP/dtmax (%) [1]: 3.0%
- Isolated Heart Assay dP/dtmin (%) [1]: No effect
- pEC50 (human APJ receptor): 7.54

Structure (SMILES): COc1cccc(OC)c1-n1c(NS(=O)(=O)[C@@H](C)[C@H](C)c2ncc(Cl)cn2)nnc1[C@H]1CCCOC1 (single isomer, unassigned) [Example 63.0, (2S,3R)-3-(5-chloropyrimidin-2-yl)-N-(4-(2,6-dimethoxyphenyl)-5-((R)-tetrahydro-2H-pyran-3-yl)-4H-1,2,4-triazol-3-yl)butane-2-sulfonamide or (2S,3R)-3-(5-chloropyrimidin-2-yl)-N-(4-(2,6-dimethoxyphenyl)-5-((S)-tetrahydro-2H-pyran-3-yl)-4H-1,2,4-triazol-3-yl)butane-2-sulfonamide]
- Isolated Heart Assay dP/dtmax (%) [1]: 14.0%
- Isolated Heart Assay dP/dtmin (%) [1]: 11.0%
- pEC50 (human APJ receptor): 8.82

Structure (SMILES): COc1cccc(OC)c1-n1c(NS(=O)(=O)[C@@H](C)[C@H](OC)c2ncc(Cl)cn2)nnc1[C@H]1CCCOC1 (single isomer, unassigned) [Example 65.0, (1R,2S)-1-(5-chloropyrimidin-2-yl)-N-(4-(2,6-dimethoxyphenyl)-5-((R)-tetrahydro-2H-pyran-3-yl)-4H-1,2,4-triazol-3-yl)-1-methoxypropane-2-sulfonamide or (1R,2S)-1-(5-chloropyrimidin-2-yl)-N-(4-(2,6-dimethoxyphenyl)-5-((S)-tetrahydro-2H-pyran-3-yl)-4H-1,2,4-triazol-3-yl)-1-methoxypropane-2-sulfonamide]
- Isolated Heart Assay dP/dtmax (%) [1]: 6.0%
- Isolated Heart Assay dP/dtmin (%) [1]: No effect
- pEC50 (human APJ receptor): 8.54

Structure (SMILES): COc1cccc(OC)c1-n1c(NS(=O)(=O)[C@@H](C)[C@H](C)c2ncc(C)cn2)nnc1[C@H]1OCC[C@H]1C (single isomer, unassigned) [Example 72.0, (2S,3R)-N-(4-(2,6-dimethoxyphenyl)-5-((2R,3S)-3-methyltetrahydrofuran-2-yl)-4H-1,2,4-triazol-3-yl)-3-(5-methylpyrimidin-2-yl)butane-2-sulfonamide or (2S,3R)-N-(4-(2,6-dimethoxyphenyl)-5-((2S,3R)-3-methyltetrahydrofuran-2-yl)-4H-1,2,4-triazol-3-yl)-3-(5-methylpyrimidin-2-yl)butane-2-sulfonamide]
- Isolated Heart Assay dP/dtmax (%) [1]: 5.9%
- Isolated Heart Assay dP/dtmin (%) [1]: 2.5%
- pEC50 (human APJ receptor): 8.17

Structure (SMILES): COc1cccc(OC)c1-n1c(NS(=O)(=O)[C@@H](C)[C@H](OC)c2ncc(Cl)cn2)nnc1[C@H]1OCC[C@H]1C (single isomer, unassigned) [Example 73.0, (1R,2S)-1-(5-chloropyrimidin-2-yl)-N-(4-(2,6-dimethoxyphenyl)-5-((2R,3S)-3-methyltetrahydrofuran-2-yl)-4H-1,2,4-triazol-3-yl)-1-methoxypropane-2-sulfonamide or (1R,2S)-1-(5-chloropyrimidin-2-yl)-N-(4-(2,6-dimethoxyphenyl)-5-((2S,3R)-3-methyltetrahydrofuran-2-yl)-4H-1,2,4-triazol-3-yl)-1-methoxypropane-2-sulfonamide]
- Isolated Heart Assay dP/dtmax (%) [1]: 2.0%
- Isolated Heart Assay dP/dtmin (%) [1]: No effect
- pEC50 (human APJ receptor): 8.85

Structure (SMILES): COc1cccc(OC)c1-n1c(NS(=O)(=O)[C@@H](C)[C@H](OC)c2ncc(Cl)cn2)nnc1[C@H]1OCC[C@H]1C (single isomer, unassigned) [Example 74.0, (1R,2S)-1-(5-chloropyrimidin-2-yl)-N-(4-(2,6-dimethoxyphenyl)-5-((2R,3S)-3-methyltetrahydrofuran-2-yl)-4H-1,2,4-triazol-3-yl)-1-methoxypropane-2-sulfonamide or (1R,2S)-1-(5-chloropyrimidin-2-yl)-N-(4-(2,6-dimethoxyphenyl)-5-((2S,3R)-3-methyltetrahydrofuran-2-yl)-4H-1,2,4-triazol-3-yl)-1-methoxypropane-2-sulfonamide]
- Isolated Heart Assay dP/dtmax (%) [1]: 5.8%
- Isolated Heart Assay dP/dtmin (%) [1]: 2.1%
- pEC50 (human APJ receptor): 6.92

Structure (SMILES): COc1cccc(OC)c1-n1c(NS(=O)(=O)[C@@H](C)[C@H](OC)c2ncc(Cl)cn2)nnc1[C@H]1CC[C@@H](C)O1 (single isomer, unassigned) [Example 77.0, (1R,2S)-1-(5-chloropyrimidin-2-yl)-N-(4-(2,6-dimethoxyphenyl)-5-((2S,5S)-5-methyltetrahydrofuran-2-yl)-4H-1,2,4-triazol-3-yl)-1-methoxy-propane-2-sulfonamide or (1R,2S)-1-(5-chloropyrimidin-2-yl)-N-(4-(2,6-dimethoxyphenyl)-5-((2R,5R)-5-methyltetrahydrofuran-2-yl)-4H-1,2,4-triazol-3-yl)-1-methoxypropane-2-sulfonamide]
- Isolated Heart Assay dP/dtmax (%) [1]: 5.0%
- Isolated Heart Assay dP/dtmin (%) [1]: No effect
- pEC50 (human APJ receptor): 9.85

From US10150760B2, “Compounds for use in preparing heterocyclic triazole agonists of the APJ receptor” (AMGEN INC., priority 2016, dated 2018)
